Results published in patent US12679836B2, “4H-pyrrolo[3,2-c]pyridin-4-one compounds” (Bayer Aktiengesellschaft, priority 2019, dated 2026).

Legend:
Assay type in all cases: cell-based
Ba/F3-EGFR-insSVD cells = Ba/F3-EGFR-insSVD cells (Homo sapiens, UniProt P00533, DUP768-770, cells depend on it); assay: Ba/F3 cell survival assay (Cell Titer-Glo), EGFR-insSVD; conditions: without IL-3, with 10 ng/mL EGF, 48 h; read-out: BA/F3 (insSVD) IC50
How it was run: (§1)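 Ba/F3 cells stably expressing WT EGFR or EGFR-insSVD from retroviral transduction were grown without IL-3 on 10 ng/mL EGF. Cells were plated at 4000 cells/well, treated with compound for 48 h at 37° C, and viability was read by CellTiter-Glo luminescence.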

[1] = biological target: Ba/F3-EGFR-D770_N771 insSVD C797S cells (Homo sapiens, UniProt P00533, DUP768-770/C797S, cells depend on it); assay: Ba/F3 cell survival assay, EGFR D770_N771insSVD C797S; conditions: without IL-3, without EGF, 48 h; read-out: BA/F3 (EGFR 0770_N771 insSVD C797S) IC50
Procedure: (§2) 293T cells from ATCC were transfected with pBABEpuro expression constructs for mutant EGFR (V769_D770insASV, D770_N771insNPG, N771_P772insH, H773_V774insNPH, E746_A750del, L858R, D770_N771insSVD C797S, E746_A750del C797S, L858R C797S, L861Q) or mutant ERBB2 (A775_G776insYVMA) and pCL-Eco packaging vector using Fugene-6 transfection reagent from Promega. Plates were incubated at 37° C. for 48 h. Retrovirus was harvested by filtering the media supernatant through a 0.45 μm filter.
(§3) Ba/F3 cells purchased from DSMZ were grown in RPMI+10% FBS+10 ng/mL IL-3 and infected with filtered retroviral supernatant at a 1:2 dilution. Polybrene was added to a concentration of 8 μg/mL, plates were spun for 90 min, and incubated overnight at 37° C. 2 μg/mL puromycin was added to the infected cells 24 h after infection and cells were continually grown in the presence of puromycin and 10 ng/mL IL-3. Following stably expressing Ba/F3 cell lines were generated: Ba/F3-EGFR-V769_D770insASV, Ba/F3-EGFR-D770_N771insNPG, Ba/F3-EGFR-N771_P772insH, Ba/F3-EGFR-H773_V774insNPH, Ba/F3-EGFR-E746_A750del, Ba/F3-EGFR-L858R, Ba/F3-EGFR-D770_N771 insSVD C797S, Ba/F3-EGFR-E746_A750del C797S, Ba/F3-EGFR-L858R C797S, Ba/F3-EGFR L861Q and Ba/F3-ERBB2-A775_G776insYVMA (Ba/F3-vector-control).
(§4) For cell survival assays, Ba/F3 cells were grown to a density of 1-2 million cells per mL, spun down and resuspended in media without IL-3, and replated at a concentration 200,000-500,000 cells per mL. The cells ectopically expressing WT EGFR plated with 10 ng/mL Millipore Culture grade EGF and Ba/F3 cells containing mutant EGFR or Mutant ERBB2 were cultivated without EGF. The cells ectopically expressing pBABEpuro empty vector were plated with 10 ng/mL IL-3.
(§5) 2 days later, cells were plated in 50 μL in a 384 well plate at a concentration of 4000 cells per well for cells assayed in the absence of IL-3 and 2000 cells per well for cells assayed in the presence of IL-3. 100 nL of compound was added to each well using a 100 nL pin head, and plates were incubated at 37° C. for 48 h.
(§6) Cell viability was measured by adding 20 μL of Cell Titer-Glo Luminescent Cell Viability Reagent diluted 1:3 in PBS. Plates were sealed with Perkin Elmer Top-Seal, inverted several times to mix, and immediately centrifuged at 1000 rpm for 2 min. Plates were incubated in low light conditions for 8-10 min and luminescence was measured.

[2] = biological target: Ba/F3-EGFR-E746_A750del cells (Homo sapiens, UniProt P00533, DEL746-750, cells depend on it); assay: Ba/F3 cell survival assay, EGFR E746_A750del; conditions: without IL-3, without EGF, 48 h; read-out: BA/F3 (EGFR E746_A750del) IC50
Procedure: as §2, §3, §4, §5, §6

PC9 cells (EGFRex19del) = assay: PC9 proliferation assay (Cell Titer Glo); conditions: Homo sapiens, PC-9, 72 h
Procedure: Cellular Data Description (PC9 Cells, EGFRex19del)
PC9 cells were purchased from ATCC. 400 PC9 cells per well were seeded in growth medium (DMEM, 10% FCS) in a 384-well plate (CORNING #3571). Seed reference plate for time zero determination on the same day. All plates were incubated overnight at 37° C. After 24 hours, test compound were added in 7-step dilution using HP Compound printer and incubated at 37° C. for 72 h. After 3 days, 30 μL/well CTG solution (Promega Cell Titer Glo solution; catalog # G755B and G756B) were added to each well, incubated for 30 minutes and the plate were read on PheraStar. Proliferation is calculated after subtracting time zero luminescence values from day 4 values and comparing to untreated wells. The IC50 values were determined using the four parameter fit.

Ba/F3-EGFR L861Q cells = Ba/F3-EGFR L861Q cells (Homo sapiens, UniProt P00533, L861Q, cells depend on it); assay: Ba/F3 cell survival assay, EGFR L861Q; conditions: without IL-3, without EGF, 48 h; read-out: BA/F3 (EGFR L861Q) IC50
Procedure: as §2, §3, §4, §5, §6

Ba/F3-EGFR-WT cells = Ba/F3-EGFR-WT cells (Homo sapiens, UniProt P00533); assay: Ba/F3 cell survival assay (Cell Titer-Glo), WT EGFR; conditions: without IL-3, with 10 ng/mL EGF, 48 h; read-out: BA/F3 (wild type) IC50
How it was run: as §1

Ba/F3-EGFR L861Q cells, sequence (P00533 whole entry L861Q): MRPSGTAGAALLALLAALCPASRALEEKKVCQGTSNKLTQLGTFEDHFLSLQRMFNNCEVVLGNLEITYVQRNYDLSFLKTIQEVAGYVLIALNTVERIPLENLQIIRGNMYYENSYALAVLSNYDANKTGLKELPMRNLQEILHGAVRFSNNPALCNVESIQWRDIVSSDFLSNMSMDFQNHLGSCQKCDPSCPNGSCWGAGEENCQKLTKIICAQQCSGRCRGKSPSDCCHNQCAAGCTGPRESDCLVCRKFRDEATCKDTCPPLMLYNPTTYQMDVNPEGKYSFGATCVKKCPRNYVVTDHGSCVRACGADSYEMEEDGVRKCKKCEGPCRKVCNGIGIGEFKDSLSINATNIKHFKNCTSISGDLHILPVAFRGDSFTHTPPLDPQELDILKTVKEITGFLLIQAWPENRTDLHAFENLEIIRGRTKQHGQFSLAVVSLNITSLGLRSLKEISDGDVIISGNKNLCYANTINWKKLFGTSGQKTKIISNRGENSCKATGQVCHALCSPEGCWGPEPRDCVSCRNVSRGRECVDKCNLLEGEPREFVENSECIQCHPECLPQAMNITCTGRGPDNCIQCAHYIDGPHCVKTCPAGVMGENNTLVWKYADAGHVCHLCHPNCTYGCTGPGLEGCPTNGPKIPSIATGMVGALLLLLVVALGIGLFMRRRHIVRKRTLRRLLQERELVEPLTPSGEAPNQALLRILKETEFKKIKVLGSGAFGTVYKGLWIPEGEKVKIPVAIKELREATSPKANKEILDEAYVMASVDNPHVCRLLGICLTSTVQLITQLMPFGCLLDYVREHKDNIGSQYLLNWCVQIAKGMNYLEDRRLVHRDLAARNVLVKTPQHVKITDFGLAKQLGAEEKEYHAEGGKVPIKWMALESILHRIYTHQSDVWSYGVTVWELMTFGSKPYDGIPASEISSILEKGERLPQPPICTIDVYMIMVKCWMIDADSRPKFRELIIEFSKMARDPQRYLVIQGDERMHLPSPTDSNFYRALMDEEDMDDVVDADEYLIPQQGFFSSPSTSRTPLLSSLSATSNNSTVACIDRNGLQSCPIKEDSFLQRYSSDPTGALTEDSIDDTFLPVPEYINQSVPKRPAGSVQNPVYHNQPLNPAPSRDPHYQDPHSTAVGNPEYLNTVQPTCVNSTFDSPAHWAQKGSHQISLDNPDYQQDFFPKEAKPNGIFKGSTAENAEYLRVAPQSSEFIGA
Ba/F3-EGFR-D770_N771 insSVD C797S cells, sequence (P00533 with tags, fused parts or gaps DUP768-770/C797S): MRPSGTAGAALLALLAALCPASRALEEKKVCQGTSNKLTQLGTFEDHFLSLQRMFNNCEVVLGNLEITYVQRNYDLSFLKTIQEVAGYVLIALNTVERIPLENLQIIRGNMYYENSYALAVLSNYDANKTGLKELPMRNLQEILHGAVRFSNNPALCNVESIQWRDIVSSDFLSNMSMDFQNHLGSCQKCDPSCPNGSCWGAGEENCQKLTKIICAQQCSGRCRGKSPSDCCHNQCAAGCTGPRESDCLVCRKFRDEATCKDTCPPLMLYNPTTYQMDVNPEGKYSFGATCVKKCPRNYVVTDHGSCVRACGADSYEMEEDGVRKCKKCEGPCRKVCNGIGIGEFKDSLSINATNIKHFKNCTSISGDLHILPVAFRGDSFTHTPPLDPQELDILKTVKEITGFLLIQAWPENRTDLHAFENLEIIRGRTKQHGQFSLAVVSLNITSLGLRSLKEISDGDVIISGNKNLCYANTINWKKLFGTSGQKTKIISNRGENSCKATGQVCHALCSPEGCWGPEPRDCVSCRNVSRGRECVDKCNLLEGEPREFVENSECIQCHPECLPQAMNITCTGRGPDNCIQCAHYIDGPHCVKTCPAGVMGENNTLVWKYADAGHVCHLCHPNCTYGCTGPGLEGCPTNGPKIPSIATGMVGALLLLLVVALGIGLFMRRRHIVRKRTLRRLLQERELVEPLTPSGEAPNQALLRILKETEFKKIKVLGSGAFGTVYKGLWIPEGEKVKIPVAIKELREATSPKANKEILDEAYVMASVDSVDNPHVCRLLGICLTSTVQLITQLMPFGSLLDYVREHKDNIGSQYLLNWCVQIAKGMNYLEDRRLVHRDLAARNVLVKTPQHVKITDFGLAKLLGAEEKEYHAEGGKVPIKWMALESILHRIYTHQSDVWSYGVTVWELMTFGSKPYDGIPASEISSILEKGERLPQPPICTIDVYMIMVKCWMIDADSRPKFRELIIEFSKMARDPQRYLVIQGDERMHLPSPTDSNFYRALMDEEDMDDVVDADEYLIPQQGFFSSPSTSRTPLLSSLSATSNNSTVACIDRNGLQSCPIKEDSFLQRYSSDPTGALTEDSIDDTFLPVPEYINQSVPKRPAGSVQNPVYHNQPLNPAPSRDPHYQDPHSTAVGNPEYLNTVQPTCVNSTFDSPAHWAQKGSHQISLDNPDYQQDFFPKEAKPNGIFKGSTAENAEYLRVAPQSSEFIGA
Ba/F3-EGFR-WT cells, sequence (P00533 whole entry, change not shown): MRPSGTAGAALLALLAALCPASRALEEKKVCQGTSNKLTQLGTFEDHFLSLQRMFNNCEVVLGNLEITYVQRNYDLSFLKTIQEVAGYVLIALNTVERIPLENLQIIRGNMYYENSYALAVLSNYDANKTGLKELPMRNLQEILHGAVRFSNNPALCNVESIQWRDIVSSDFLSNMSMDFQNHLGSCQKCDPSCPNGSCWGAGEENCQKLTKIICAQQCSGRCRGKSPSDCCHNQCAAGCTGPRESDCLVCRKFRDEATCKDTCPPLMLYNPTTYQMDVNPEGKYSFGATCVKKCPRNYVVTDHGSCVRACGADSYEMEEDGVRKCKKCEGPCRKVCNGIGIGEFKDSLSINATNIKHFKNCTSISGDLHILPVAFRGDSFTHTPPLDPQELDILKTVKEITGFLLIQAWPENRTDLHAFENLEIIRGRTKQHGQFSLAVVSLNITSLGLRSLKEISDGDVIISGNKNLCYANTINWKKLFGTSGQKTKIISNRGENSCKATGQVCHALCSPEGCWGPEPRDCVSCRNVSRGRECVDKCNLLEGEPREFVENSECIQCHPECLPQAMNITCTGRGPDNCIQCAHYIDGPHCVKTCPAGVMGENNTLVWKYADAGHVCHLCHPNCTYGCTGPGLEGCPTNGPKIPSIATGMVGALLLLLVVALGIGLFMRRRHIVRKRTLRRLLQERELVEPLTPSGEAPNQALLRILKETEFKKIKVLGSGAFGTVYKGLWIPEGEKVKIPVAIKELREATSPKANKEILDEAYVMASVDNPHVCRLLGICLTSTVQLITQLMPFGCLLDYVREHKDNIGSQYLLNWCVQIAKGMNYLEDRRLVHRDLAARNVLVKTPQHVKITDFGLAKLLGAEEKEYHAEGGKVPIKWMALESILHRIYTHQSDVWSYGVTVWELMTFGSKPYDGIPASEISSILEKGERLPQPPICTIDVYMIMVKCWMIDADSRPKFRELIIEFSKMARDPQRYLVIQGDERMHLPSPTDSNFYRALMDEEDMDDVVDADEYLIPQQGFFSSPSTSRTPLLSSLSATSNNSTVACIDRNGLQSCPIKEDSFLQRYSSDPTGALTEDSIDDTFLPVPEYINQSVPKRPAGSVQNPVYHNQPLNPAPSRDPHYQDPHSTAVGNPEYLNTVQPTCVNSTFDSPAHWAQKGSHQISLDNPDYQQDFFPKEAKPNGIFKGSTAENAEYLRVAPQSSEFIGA
Ba/F3-EGFR-E746_A750del cells, sequence (P00533 with tags, fused parts or gaps DEL746-750): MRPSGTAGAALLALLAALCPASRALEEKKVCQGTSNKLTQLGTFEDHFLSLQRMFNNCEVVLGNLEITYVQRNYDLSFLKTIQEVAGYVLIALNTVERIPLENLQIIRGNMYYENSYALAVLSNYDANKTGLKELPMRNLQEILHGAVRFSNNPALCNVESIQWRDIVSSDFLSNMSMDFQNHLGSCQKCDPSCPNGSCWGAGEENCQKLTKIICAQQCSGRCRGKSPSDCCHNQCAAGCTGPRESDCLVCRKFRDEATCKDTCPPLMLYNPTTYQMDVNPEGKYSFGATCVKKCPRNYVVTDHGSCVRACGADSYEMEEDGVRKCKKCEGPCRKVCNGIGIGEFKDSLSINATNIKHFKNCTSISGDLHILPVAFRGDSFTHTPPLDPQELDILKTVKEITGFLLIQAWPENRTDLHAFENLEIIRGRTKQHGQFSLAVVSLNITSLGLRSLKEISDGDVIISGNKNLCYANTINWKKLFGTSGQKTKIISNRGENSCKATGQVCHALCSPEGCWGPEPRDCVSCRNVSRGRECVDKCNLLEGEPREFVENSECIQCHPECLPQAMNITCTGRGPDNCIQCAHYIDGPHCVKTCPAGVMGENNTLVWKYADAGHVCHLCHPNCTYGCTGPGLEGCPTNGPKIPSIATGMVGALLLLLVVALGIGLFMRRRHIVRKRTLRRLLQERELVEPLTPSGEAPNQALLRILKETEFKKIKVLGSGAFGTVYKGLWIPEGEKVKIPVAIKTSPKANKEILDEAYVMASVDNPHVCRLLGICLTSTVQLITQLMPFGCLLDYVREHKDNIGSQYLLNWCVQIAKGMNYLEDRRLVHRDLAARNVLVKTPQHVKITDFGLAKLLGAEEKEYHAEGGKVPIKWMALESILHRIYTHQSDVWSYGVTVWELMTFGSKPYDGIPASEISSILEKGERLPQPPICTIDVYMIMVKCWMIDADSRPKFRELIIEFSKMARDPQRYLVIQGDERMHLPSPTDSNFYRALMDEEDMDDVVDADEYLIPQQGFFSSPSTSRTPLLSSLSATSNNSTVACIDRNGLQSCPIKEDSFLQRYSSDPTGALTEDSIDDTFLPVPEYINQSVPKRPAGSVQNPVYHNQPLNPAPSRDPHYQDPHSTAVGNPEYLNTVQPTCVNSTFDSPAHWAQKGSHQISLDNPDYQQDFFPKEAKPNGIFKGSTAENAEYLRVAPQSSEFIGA

Row | Compound | GI50 (Ba/F3-EGFR-insSVD cells) [nM] | GI50 [1] [nM] | GI50 [2] [nM] | IC50 (PC9 cells (EGFRex19del)) [nM] | GI50 (Ba/F3-EGFR L861Q cells) [nM] | GI50 (Ba/F3-EGFR-WT cells) [nM]
1 | COc1c(F)cccc1Nc1c(-c2ccncc2OCC2CN(C)CCO2)[nH]c2c1C(=O)NCC2 (single isomer, unassigned) [Example 14, 3-(3-fluoro-2-methoxyanilino)-2-{3-[(4-methylmorpholin-2-yl)methoxy]pyridin-4-yl}-1,5,6,7-tetrahydro-4H-pyrrolo[3,2-c]pyridin-4-one] | 10.5 | 24.9 | 1.72 | 2.12 | 20.1 | 387
2 | O=C1NCCc2[nH]c(-c3ccncc3OCC3COCCO3)c(Nc3cccc(Cl)c3Cl)c21 (single isomer, unassigned) [Example 8, 3-(2,3-dichloroanilino)-2-{3-[(1,4-dioxan-2-yl)methoxy]pyridin-4-yl}-1,5,6,7-tetrahydro-4H-pyrrolo[3,2-c]pyridin-4-one] | 8.18 | 14.6 | < 0.158 | 0.738 | 13.7 | 121
3 | Cc1c(Cl)cccc1Nc1c(-c2ccncc2OC[C@@H]2CN(C)CCO2)[nH]c2c1C(=O)NCC2 [Example 42, 3-(3-chloro-2-methylanilino)-2-(3-{[(2S)-4-methylmorpholin-2-yl]methoxy}pyridin-4-yl)-1,5,6,7-tetrahydro-4H-pyrrolo[3,2-c]pyridin-4-one] | 19.8 | 19.3 | 0.486 | 4.03 | 18.8 | 596
4 | CCc1c(Cl)cccc1Nc1c(-c2ccncc2OC[C@@H]2CN(C)CCO2)[nH]c2c1C(=O)NCC2 [Example 56, 3-(3-chloro-2-ethylanilino)-2-(3-{[(2S)-4-methylmorpholin-2-yl]methoxy}pyridin-4-yl)-1,5,6,7-tetrahydro-4H-pyrrolo[3,2-c]pyridin-4-one] | 11.9 | 14 | 0.892 | 1.74 | 29.5 | 435
5 | COc1c(Cl)cccc1Nc1c(-c2ccncc2OC[C@@H]2COCCN2C)[nH]c2c1C(=O)NCC2 [Example 21, 3-(3-chloro-2-methoxyanilino)-2-(3-{[(3S)-4-methylmorpholin-3-yl]methoxy}pyridin-4-yl)-1,5,6,7-tetrahydro-4H-pyrrolo[3,2-c]pyridin-4-one] | 3.49 | 7.84 | 0.203 | 1.16 | 7.34 | 341
6 | COc1c(F)cccc1Nc1c(-c2ccncc2OCC2COCCO2)[nH]c2c1C(=O)NCC2 (single isomer, unassigned) [Example 5, 2-{3-[(1,4-dioxan-2-yl)methoxy]pyridin-4-yl}-3-(3-fluoro-2-methoxyanilino)-1,5,6,7-tetrahydro-4H-pyrrolo[3,2-c]pyridin-4-one] | 9.73 | 37 | 0.739 |  | 30.9 | 262
7 | COc1c(Cl)cccc1Nc1c(-c2ccncc2OCC2COC(C)(C)CO2)[nH]c2c1C(=O)NCC2 (single isomer, unassigned) [Example 32, 3-(3-chloro-2-methoxyanilino)-2-{3-[(5,5-dimethyl-1,4-dioxan-2-yl)methoxy]pyridin-4-yl}-1,5,6,7-tetrahydro-4H-pyrrolo[3,2-c]pyridin-4-one] |  | 15.8 | 2.89 | 1.7 | 17.4 | 
8 | Cc1c(Cl)cccc1Nc1c(-c2ccncc2OC[C@H]2COCCO2)[nH]c2c1C(=O)NCC2 (single isomer, unassigned) [Example 50] | 8.82 | 26.7 | 1.1 | 6.82 | 24 | 361
9 | Cc1c(F)cccc1Nc1c(-c2ccncc2OCC2COCCO2)[nH]c2c1C(=O)NCC2 (single isomer, unassigned) [Example 48, 2-[3-(1,4-dioxan-2-ylmethoxy)-4-pyridyl]-3-(3-fluoro-2-methyl-anilino)-1,5,6,7-tetrahydropyrrolo[3,2-c]pyridin-4-one] | 18.8 |  | 1.43 | 3.4 | 39.7 | 379
10 | Cc1c(Cl)cccc1Nc1c(-c2ccncc2OCC2COC(C)(C)CO2)[nH]c2c1C(=O)NCC2 (single isomer, unassigned) [Example 46, 3-(3-chloro-2-methyl-anilino)-2-[3-[(5,5-dimethyl-1,4-dioxan-2-yl)methoxy]-4-pyridyl]-1,5,6,7-tetrahydropyrrolo[3,2-c]pyridin-4-one] | 10.1 |  | 1.05 | 2.89 | 15.8 | 376
11 | COc1c(Cl)cccc1Nc1c(-c2ccncc2OC[C@@H]2COCCO2)[nH]c2c1C(=O)NCC2 (single isomer, unassigned) [Example 2] | 7.12 | 8.22 | < 0.158 | 0.673 | 14.8 | 292
12 | COc1c(F)cccc1Nc1c(-c2ccncc2OC[C@@H]2COCCN2C)[nH]c2c1C(=O)NCC2 [Example 20, 3-(3-fluoro-2-methoxyanilino)-2-(3-{[(3S)-4-methylmorpholin-3-yl]methoxy}pyridin-4-yl)-1,5,6,7-tetrahydro-4H-pyrrolo[3,2-c]pyridin-4-one] | 8.25 | 12.2 |  | 2.68 |  | 313
